The values that follow come from ChEMBL document CHEMBL1143788, “Trifunctional norrisolide probes for the study of Golgi vesiculation” (2007).

SMILES strings stand for the structures. Calls of active or inactive are those of the source. The calls are words filed in the database; no cut-off is given here.

Assay [1] relates to NRK. Description: Effect on Golgi fragmentation in NRK cells at 30 uM for 60 mins. The format is functional.
Assay [2] deals with NRK. As to the kind of experiment: Effect on Golgi fragmentation in NRK cells for 60 mins. The format is functional.

Turning to `COC(=O)c1ccc(N=[N+]=[N-])cc1OCCCNC(=O)CCCC[C@@H]1SC[C@@H]2NC(=O)N[C@@H]21`, the result in assay [1] (Rattus norvegicus) was inactive.

On to `CC1(C)CCC[C@]2(C)[C@@H](OC(=O)c3ccc(OCC4CO4)cc3OCC(=O)NCCOCCOCCNC(=O)CCCC[C@@H]3SC[C@@H]4NC(=O)N[C@@H]43)CC[C@@H]12` (stereo not given in full), for which, in assay [2] (Rattus norvegicus), the result was Active.

Compound `CC1(C)CCC[C@]2(C)[C@@H](OC(=O)c3ccc(N=[N+]=[N-])cc3OCCCNC(=O)CCCC[C@@H]3SC[C@@H]4NC(=O)N[C@@H]43)CC[C@@H]12` gave an Activity in assay [1] of 50%.

In turn, `CC1(C)CCC[C@]2(C)[C@@H](OC(=O)c3cc(I)c(OCC4CO4)cc3OCC3CO3)CC[C@@H]12` (stereo not given in full) had an Activity in assay [2] above 80%.

Take `CC1(C)CCC[C@]2(C)[C@@H](OC(=O)c3ccc(OCCCNC(=O)CCCC[C@@H]4SC[C@@H]5NC(=O)N[C@@H]54)cc3OCC3CO3)CC[C@@H]12` (stereo not given in full): in assay [2], the Activity is below 10%.
